# Records with an inconclusive call do not appear. Calls of active or inactive are those of the source.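 How the source made its calls: active means inhibition of the calcium rise above 50%; inconclusive means blank fluorescence over twice solvent-only controls, so no ratio; inactive means inhibition below 50%.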
# System: TALL-104 cells, thapsigargin Ca2+ rise, fura-2 ratio
# Assay: intracellular Ca2+ signaling inhibition in T cells – TALL-104 cells, fura-2 fluorescence, CherryPick01, mechanism study for lytic granule exocytosis inhibitor project (AID 720670)
# Settings: at 30 µM; stronger effect = higher value
row,Compound,inhibition
1,Cc1ccc(Nc2nc(NCc3ccco3)c3ccccc3n2)cc1,-2.3% (inactive)
2,CCc1nc2ccc(C(=O)NC3CCN(Cc4ccccc4)CC3)cn2c1N(C)Cc1cc2ccccc2s1,3.6% (inactive)
3,CC1(C(=O)OCC(=O)Nc2nc(-c3ccc(F)c(F)c3)cs2)CC1(Cl)Cl (configuration not stated),20.1% (inactive)
4,CCCNC(=O)Cn1sc2nc(C)cc(C)c2c1=O,19.7% (inactive)
5,COc1cccc(NC(=O)Nc2nc(-c3ccc(OC)c(OC)c3)cs2)c1,90.9%
6,CCc1ccc(/C=C2/Sc3ccccc3N(CC(=O)NCCCN3CCOCC3)C2=O)cc1,3.8% (inactive)
7,COc1cccc(-c2cnc3c(NC=O)cc(-c4ccccc4)cn23)c1,66.5%
8,O=C1C=CC(=O)N1N(c1ccccc1)c1ccccc1,11.2% (inactive)
9,CCCCC[C@@H](C)N1C[C@H](COCc2ccccc2)Oc2cc(N3CC[C@@H](N(C)C)C3)ccc2S1(=O)=O,37.4% (inactive)
10,N#Cc1c(Nc2ccccc2Cl)s[nH]c1=O,9.3% (inactive)
11,CCOc1cc(CNCCc2ccc(S(N)(=O)=O)cc2)ccc1OCc1ccc(Cl)cc1,63.5%
12,CCC(=C(c1ccc(OC)cc1)c1ccc(OC)cc1)c1cn(CC(O)CN2CCN(C)CC2)c2ccccc12 (configuration not stated),41.5% (inactive)
13,COc1cccc(-c2cnc3c(NC(C)=O)cc(-c4ccsc4)cn23)c1,39.6% (inactive)
14,CCCCn1c(=N)n(CC(=O)c2ccc(Br)s2)c2ccccc21,58.6%
15,CC1=C(C)CS(=O)N(S(=O)(=O)c2ccc(Cl)cc2)C1 (configuration not stated),11.4% (inactive)
16,O=C(Cn1sc2ccccc2c1=O)Nc1ccc(F)cc1,-21.1% (inactive)
17,CC1=NOC(=O)/C1=C/c1ccc(-c2ccc(Cl)cc2)o1,18.1% (inactive)
18,COc1ccc(-n2sc3ccccc3c2=O)cc1,19.8% (inactive)
19,CCCS(=O)(=O)Nc1ccc(Nc2c3ccccc3nc3ccccc23)c(OC)c1,67.1%
20,CC(=O)Nc1ccc2c(=O)n(-c3ccccc3)sc2c1,16.3% (inactive)
21,O=C1CC(Sc2nnnn2-c2ccccc2)C(=O)N1c1cccc(Cl)c1 (configuration not stated),6.9% (inactive)

row,Compound,inhibition
1,CCCCC[C@@H](C)N1C[C@@H](COCc2ccccc2)Oc2cc(N3CC[C@H](N(C)C)C3)ccc2S1(=O)=O,37.6% (inactive)
2,O=S(=O)(c1ccccc1)c1nnn2c1nc(NC1CCN(Cc3ccccc3)CC1)c1cc(Cl)ccc12,79.3%
3,COc1ccccc1CNc1nc(NCc2ccc(C(C)C)cc2)c2sccc2n1,4.1% (inactive)
4,CC1COCC(C)N1C1=C(Cl)C(=O)c2ccccc2C1=O (configuration not stated),27% (inactive)
5,CN(C)CCCNC(=S)NCC(c1ccc(Cl)cc1Cl)c1c[nH]c2ccccc12 (configuration not stated),10.4% (inactive)
6,CCCCC[C@@H](C)N1C[C@@H](COCc2ccccc2)Oc2cc(N3CC[C@@H](N(C)C)C3)ccc2S1(=O)=O,21.3% (inactive)
7,CCOC(=O)c1c(NC(=O)COc2ccccc2OCC)sc2c1CC(C)(C)NC2(C)C,32.1% (inactive)
8,COc1ccc([N+](=O)[O-])cc1Nc1c2ccccc2nc2ccccc12,12.2% (inactive)
9,O=C(Nc1ccc(F)cc1)c1nc(S(=O)(=O)Cc2ccccc2)ncc1Cl,75.7%
10,COC(=O)c1c(NC(=O)c2ccc(C(=O)c3ccccc3)cc2)sc2c1CC(C)(C)NC2(C)C,73.3%
11,CC(C)(c1ccccc1)c1ccc(OCC(O)CNC2CCN(Cc3ccccc3)CC2)cc1 (configuration not stated),27.1% (inactive)
12,O=C1Nc2ccc(Br)cc2/C1=C/C(=O)c1ccccc1,15.1% (inactive)
13,Cn1sc(=O)c2cc(S(=O)(=O)NC3CC3)ccc21,91.3%
14,OC(CNCC(c1ccc(Cl)cc1Cl)c1c[nH]c2ccccc12)c1ccccc1 (configuration not stated),34.1% (inactive)
15,COc1cc(-c2coc3c(C(=O)NCc4ccc(OC)c(OC)c4)cccc23)ccc1O,15.4% (inactive)
16,COc1cccc(-c2cnc3c(NC(C)=O)cc(-c4ccccc4OC)cn23)c1,81.3%
17,Cc1cc(N2CCN(c3nc(-c4ccc([N+](=O)[O-])cc4)cs3)CC2)c2ccccc2n1,-35.4% (inactive)
18,COc1ccc(-c2cc(NC=O)c3ncc(-c4cccc(OC)c4)n3c2)cc1,22.8% (inactive)
19,O=CNc1cc(-c2ccsc2)cn2c(-c3ccccc3)cnc12,11% (inactive)
20,CCc1ccc2nc(N(CCCN(C)C)C(=O)c3ccc(S(=O)(=O)N4CCc5ccccc5C4)cc3)sc2c1,50.9%
21,CC(=O)Nc1ccc2sn(-c3ccccc3)c(=O)c2c1,12.6% (inactive)

row,Compound,inhibition
1,O=c1c2ccccc2sn1-c1ccccc1,-10.6% (inactive)
2,O=C(OCc1ccccc1)N(CCCCN(CCCNCc1ccccc1)C(=O)OCc1ccccc1)CCCNCc1ccccc1,57.3%
3,O=c1c2ccc(F)cc2sn1-c1ccccc1,7.1% (inactive)
4,COc1ccc(-c2cc(NC=O)c3ncc(-c4ccccc4)n3c2)cc1OC,31.5% (inactive)
5,COC(=O)c1c(NC(=O)c2nc3ccccc3s2)sc2c1CC(C)(C)NC2(C)C,41.7% (inactive)
6,Cc1ccc(S(=O)(=O)n2ccc3c(OCCOCCNCc4ccc(F)cc4)cccc32)cc1,39.2% (inactive)
7,CCOC(=O)c1c(CSc2ccccc2)n(C)c2cc(Br)c(O)c(CN(C)C)c12,70.2%
8,CCOC(=O)c1nnc(-c2ccccc2)nc1Sc1ccccc1Cl,21.2% (inactive)
9,COc1ccccc1CNc1nc(NCc2ccc3occc3c2)c2sccc2n1,8.8% (inactive)
10,COC(=O)[C@]12CCCCC=C1N(Cc1cccc3ccccc13)C(=O)[C@H](CC(=O)NCc1ccc(OC)c(OC)c1)C2,6.3% (inactive)
11,N#Cc1ccc(NC(=O)Nc2ccc(Oc3ccc(NC(=O)Nc4ccc(C#N)cc4)cc3)cc2)cc1,-1.1% (inactive)
12,Cc1ccc(-n2nnc3c(=O)oc4ccccc4c32)cc1,116%
13,O=C(Cn1sc2ccccc2c1=O)NC12CC3CC(CC(C3)C1)C2,3% (inactive)
14,COc1ccc(N2C(=O)CC(Sc3nnc(-c4ccccc4)o3)C2=O)cc1 (configuration not stated),-14.7% (inactive)
15,CCOc1ccc2nc(C)cc(Nc3cccc([N+](=O)[O-])c3)c2c1,77.7%
16,CCOC(=O)c1cc(-c2csc(Nc3c(C)cc(C)cc3C)n2)on1,79.7%
17,CN(c1ccccc1)S(=O)(=O)c1cccc(C(=O)NCCc2c[nH]c3ccccc23)c1,78.8%
18,c1ccc(CNc2nc(NCC3CC3)nc3cc(-c4ccccc4)sc23)cc1,70%
19,O=c1c2ccccc2sn1-c1ccccc1F,18.8% (inactive)
20,CCOc1ccc2nc(N(CCCN(C)C)C(=O)c3ccc(S(=O)(=O)N4CCc5ccccc5C4)cc3)sc2c1,69.4%

# — PubChem BioAssay AID720670 (NMMLSC, 2013)
